Reference: a melting point compilation (Tetko et al.; mined from patent text by program, amines drawn as free bases though some values may be those of a salt)

Compared with `CSC1CCC2C3CCC4=CC(=O)C=CC4(C)C3(F)C(OC(C)=O)CC12C` (centres undefined), `COCC(=O)OC1(C(=O)COC(=O)C(C)C)CCC2C3CC(C)C4=CC(=O)C=CC4(C)C3C(O)CC21C` (centres undefined) is lower in melting point: 169 to 170 °C for the first, 148 to 150 °C for the second.

Compared with `Cc1cc(C)c(O)c(Cc2cc(C)cc(C)c2O)c1`, `Cc1ccc(Cn2c(C)cc(C)c(C#N)c2=O)cc1` is higher in melting point: 125 to 126 °C for the first, 178 to 181 °C for the second.

First: O=Cc1cn(-c2ccc(F)cc2)c2ccc(Cl)cc12
Second: CC(=O)c1ccc(S(=O)(=O)n2c(CCC(=O)O)cc3cc(Cl)ccc32)cc1
The melting point of the first is lower: 152 to 154 °C for the first, 159 to 161 °C for the second.

First: CCOC(=O)Cn1c(=O)n(Cc2ccc(Cl)c(Cl)c2)c(=O)c2ccccc21
Second: Cc1ccn(Cc2ccc(Cl)c(Cl)c2)c(=O)c1C(=O)O
The melting point of the first is lower: 121 to 122 °C for the first, 219 to 221 °C for the second.

Compared with `O=C(O)CCCC#CCc1c(-c2ccccc2)nc(-c2ccccc2)n1-c1ccccc1`, `C=C(Nc1nc(-c2ccccc2)c(-c2nc3ccccc3c(=O)n2-c2ccccc2)s1)c1ccco1` is higher in melting point: 144 to 145 °C for the first, 271 to 272 °C for the second.

First: CCCCOC(=O)[C@H]1CN(c2cc(F)c(N3CCOCC3)c(F)c2)C(=O)O1
Second: O=C(Nc1ccc(OCCN2CCOCC2)c2ccccc12)c1cc(N2CCOCC2)ncn1
The melting point of the first is higher: 99 to 100 °C for the first, 50 to 51 °C for the second.

Compared with `CCn1nccc1-c1ccc2[nH]c3c(cc(-c4ccc(Cl)cc4Cl)c(=O)n3C)c2c1`, `Cn1cc(Cc2cc3cccc(-c4cccc(C(=O)NCCO)c4)c3s2)cc(Cl)c1=O` is lower in melting point: 255 to 258 °C for the first, 210 to 211 °C for the second.

First: O=C(c1ccc(F)cc1)c1cnn2c(-c3ccncc3)ccnc12
Second: CCOC(=O)c1ccc(-c2cnc(-c3ccc(C(F)(F)F)cc3)s2)cc1
The melting point of the first is higher: 214 to 216 °C for the first, 174 to 176 °C for the second.

Compared with `Cn1cc(-c2cc3cccnc3[nH]2)c2cc(C(=O)NCC(O)CO)ccc21` (centres undefined), `COc1cc(C(=O)O)ccc1Cc1cccc2ccc(C(=O)NCC(C)C)cc12` is higher in melting point: 171 to 172 °C for the first, 254 °C for the second.

First: CCCCCCCCCCCCCCOc1ccc(CNc2ccc(CO)cc2)cc1
Second: O=C(O)CCCCCCOc1ccc(OCc2ccccc2)cc1
The melting point of the first is lower: 85 to 87 °C for the first, 118 to 119 °C for the second.

Compared with `CC(=O)NC1CCN(Cc2ccccc2)C1` (centres undefined), `CC(C)N[C@H](CO)Cc1ccccc1` is lower in melting point: 83 to 85 °C for the first, 65 to 66 °C for the second.

Compared with `Nc1ncn(C[C@@H](CO)OCP(=O)(O)O)c(=O)n1`, `CC(C)CCC(=O)OC1c2ccccc2C(=O)N1c1ccc2ccc(F)nc2n1` (centres undefined) is lower in melting point: 175 to 178 °C for the first, 154 °C for the second.

First: CC(C)(C)C(=O)Nc1c(F)cc(F)cc1Oc1ccc(C(C)(C)C(=O)O)cc1
Second: CC(C)(C)OC(=O)NCC(=O)Nc1ccc(O)cc1
The melting point of the first is higher: 168 to 170 °C for the first, 152 to 154 °C for the second.

Compared with `Cn1nnnc1S(=O)(=O)Cc1ccccc1`, `CCOC(=O)c1cc(SCc2ccccc2)c(Cc2ccccc2)c(S(N)(=O)=O)c1` is lower in melting point: 122 to 125 °C for the first, 108 to 110 °C for the second.

Going from `NS(=O)(=O)c1cccc(-c2noc(-c3cnn4c(C(F)(F)F)cc(-c5ccc(C(F)(F)F)c(OCC(F)(F)F)c5)nc34)n2)c1` to `O=C(Nc1cccc(S(=O)(=O)NCc2ccccn2)c1)c1cnn2c(C(F)F)cc(-c3ccc(C(F)(F)F)cc3)nc12`, the melting point falls from 250 °C to 208 °C.

First: O=C(Nc1cccc([N+](=O)[O-])c1)c1ccccc1SSc1ccccc1C(=O)Nc1cccc([N+](=O)[O-])c1
Second: COc1cc(COc2cc(/C=C/C(=O)O)n(-c3ccccc3)n2)ccc1OCc1nc(-c2ccccc2)oc1C
The melting point of the first is higher: > 270 °C for the first, 194 to 195 °C for the second.

First: CC(C)=CCCNC(=S)Nc1nc(C)cs1
Second: CCOC(=O)c1sc(C)nc1OC(=S)N(C)C
The melting point of the first is higher: 164 to 166 °C for the first, 87 to 90 °C for the second.

First: CC(=O)COc1ccc2c(C)cc(=O)oc2c1
Second: O=C(O)COc1ccc2c(=O)c3ccccc3oc2c1Cl
The melting point of the first is lower: 146 to 148 °C for the first, 280 to 281 °C for the second.

First: CCNC(C)CN1CCc2c(c(=O)oc3c(OC)c(OC)ccc23)C1 (centres undefined)
Second: COc1ccc(Cn2c(N)c(NC(=O)C(C)C)c(=O)[nH]c2=O)cc1OC
The melting point of the first is lower: 125 to 127 °C for the first, 207 to 210 °C for the second.

First: Cc1ccc2c(c1)c(N1CCN(C(=O)c3cccs3)CC1)c(C#N)c(=O)n2C
Second: Cn1cc([C@H]2CC[C@@H](N3CCN(c4cc(C=O)cc5cccnc45)CC3)CC2)c2cc(C#N)ccc21
The melting point of the first is higher: 214 °C for the first, 172 to 174 °C for the second.

First: CC(=O)NC1CC(C)(C)NC(C)(C)C1
Second: Cc1cc(C2CC(C)(C)CC(C)(C)C2=O)ccc1F (centres undefined)
The melting point of the first is higher: 100 to 102 °C for the first, 63 to 64 °C for the second.

First: N#Cc1ncccc1C(=O)OCc1csc(-c2cccc(Cl)c2)n1
Second: Clc1cc(-c2ccccc2)nc2sccc12
The melting point of the first is higher: 130 °C for the first, 83 to 85 °C for the second.

First: CCCCC1CCCC2=C1C(=O)c1cc(C)c(C)cc1C2=O (centres undefined)
Second: O=C1CCCc2cc(OCCCCl)ccc21
The melting point of the first is higher: 88 to 90 °C for the first, 85 to 87 °C for the second.

First: CCCc1c(OCCCOc2ccc(Cl)cc2)ccc2c1OC(CCC(=O)O)(CCC(=O)O)CC2=O
Second: CCC(=C(c1ccc(O)cc1)c1ccc(O)cc1)c1ccc(OCC(=O)O)c(OC)c1
The melting point of the first is lower: 133 to 134 °C for the first, 253 to 254 °C for the second.

First: C[C@@H](n1cnc2cc(-c3ccc(C=NNO)cc3)sc2c1=O)[C@](O)(Cn1cncn1)c1ccc(F)cc1F
Second: CC1CCN(Cc2ccc(C=CC(=O)Nc3ccc(-c4ccc(Cl)cc4)cc3)cc2)CC1
The melting point of the first is higher: 246 to 247 °C for the first, 207 to 208 °C for the second.

Compared with `NC(=NO)c1c(C(F)(F)F)ccc(F)c1F`, `CCC(=O)Nc1c(C(O)(C(F)(F)F)C(F)(F)F)ccc2ccccc12` is higher in melting point: 114 to 115 °C for the first, 118 to 119 °C for the second.

Compared with `CCOC(=O)c1cc2c(nc(C)n2C)c2c1CCC1(Cc3ccccc3C1)N2`, `CCOC(=O)c1cnc2[nH]c(-c3cc(OCc4ccccc4)ccc3OC(C)C)nc2c1` is lower in melting point: 167 to 168 °C for the first, 138 to 140 °C for the second.

First: COc1ccc(C(=NO)c2ccc(OC)cc2)cc1
Second: COc1ccc(N2Cc3nc(C(=O)O)nn3-c3cccnc32)cc1
The melting point of the first is lower: 131 to 132 °C for the first, 190 to 196 °C for the second.

Compared with `CC1(C)C=C(c2ccccn2)c2cc(C#N)ccc2OC1`, `NCCSc1ncccc1C(O)c1ccccc1` (centres undefined) is lower in melting point: 155 to 157 °C for the first, 118 to 120 °C for the second.

First: N#Cc1cnc2cc(/C=C/CCCCCCCCCN3CCOCC3)ccc2c1Nc1ccc(Cl)cc1Cl
Second: O=C(CCCCCCCCCCBr)Nc1ccc(O)cc1
The melting point of the first is lower: 105 to 106 °C for the first, 116 to 117 °C for the second.

First: CCOC(=O)C(O)=Cc1cc(CCc2ccc(F)cc2)ccn1
Second: COC(=O)CNC(=O)c1ccc(NS(=O)(=O)c2ccc(F)cc2)cn1
The melting point of the first is lower: 129 to 130 °C for the first, 146 to 148 °C for the second.

First: CO/C=C(/C(=O)OC)c1ccccc1COc1cccc(N2CCCCC2)c1
Second: FC(F)(F)Oc1ccc2nccc(N3CCN(C(=S)NCc4ccccc4)CC3)c2c1
The melting point of the first is lower: 64 to 66 °C for the first, 70 to 71 °C for the second.

First: Cc1c(C)c(NC(=O)CC(C)(C)C)c2c(c1C)C(c1ccc(C(C)C)cc1)C(C)(C)O2 (centres undefined)
Second: Cc1ccc(NC(=O)c2nc(C)cc(C#N)c2C)nc1
The melting point of the first is lower: 152 to 153 °C for the first, 212 °C for the second.

First: CN(CCOc1ccc(Cl)c2c1CC(=O)N2)c1cccs1
Second: COc1cc(Oc2cccc3c2NC(=O)C3)cc(OC)c1OC
The melting point of the first is higher: 203 to 204 °C for the first, 170 to 171 °C for the second.

First: O=C(c1ccc(O)cc1)c1oc2ccccc2c1-c1ccc(Cl)cc1
Second: CN(C)C(=O)c1ccc(C(=O)CS(=O)(=O)C(c2ccc(Cl)cc2)c2ccc(Cl)cc2)s1
The melting point of the first is higher: 220 to 221 °C for the first, 192 to 194 °C for the second.

First: CCCCNC(=O)NS(=O)(=O)c1ccc(CCNC(=O)N2CC(C)=C(C)C2=O)cc1
Second: COc1ccc(Cl)cc1C(=O)NCCc1ccc(Br)c(S(N)(=O)=O)c1
The melting point of the first is higher: 198 to 200 °C for the first, 190 °C for the second.

Compared with `Fc1cc2c(Nc3ccc(Cl)c(Br)c3)ncnc2cn1`, `COc1ccc(-c2nc3cnccc3[nH]2)c(OCC#N)c1` is lower in melting point: 271 to 275 °C for the first, 198 °C for the second.

Compared with `COc1ccc([N+](=O)[O-])cc1C=O`, `Cc1ccc(S(=O)(=O)N(C)c2cc(C)cc([N+](=O)[O-])c2N)cc1` is higher in melting point: 89 to 90 °C for the first, 208 °C for the second.

First: CC12CC(=O)C3C(CCC4CC(O)CCC43C)C1CCC2C(=O)CBr (centres undefined)
Second: O=C(CCC(=O)N1CCC(c2ccc(Cl)cc2)CC1)c1ccc2c(c1)CNCC2
The melting point of the first is higher: 160 to 163 °C for the first, 121 to 122 °C for the second.

Compared with `CCc1nc2c(N)nc(C)c(C)c2n1CCCC(N)=O`, `COc1ccc(-c2nnn(-c3cc(C)on3)c2N)cc1` is lower in melting point: 228 to 230 °C for the first, 136 to 141 °C for the second.

`Cc1cccc(C)c1O[C@@H]1CCNC[C@H]1O` (relative stereo) and `CN1C(=O)[C@H](N)N=C(C2CCCCC2)c2ccccc21` cannot be ordered by melting point: 131 to 133 °C for the first, 130 to 133 °C for the second.

Compared with `CCNc1c(C(=O)O)ccc(Br)c1OCC`, `Cc1cc2c(c(C(=O)O)c1)OCC2` is higher in melting point: 129 to 139 °C for the first, 177 to 179 °C for the second.

First: COc1cc(COc2nn(-c3ccccc3)cc2/C=C/C(N)=S)ccc1OCc1nc(-c2ccco2)oc1C
Second: COc1ccc(S(=O)(=O)N(CC(N)=O)c2ccc(Cl)cc2C(C)c2ccccc2Cl)cc1OC (centres undefined)
The melting point of the first is lower: 129 to 131 °C for the first, 150 °C for the second.

First: COc1ccc(C2=NN(C3CCN(C(=O)CN4C(=O)c5ccccc5C4=O)CC3)C(=O)C(C)(C)C2)cc1OC
Second: CCOC(=O)N1CCN(C(=O)Cn2c(-c3ccc(Cl)cc3)nc3cccnc32)CC1
The melting point of the first is higher: 193 to 194 °C for the first, 184 to 186 °C for the second.

First: C1COCCOCCOCCOCCO1
Second: CC(=O)OCCOC(=O)C1=C(C)Nc2nc(N3CCOCC3)nc(N3CCOCC3)c2C1c1cccnc1 (centres undefined)
The melting point of the first is lower: 70 to 71 °C for the first, 170 °C for the second.

First: CC(Cc1ccc(C2OC(N)=NC2=O)cc1)NCC(O)c1cccc(C(F)(F)F)c1 (centres undefined)
Second: O=c1cc(CO)nc2ccn(-c3ccccc3)n12
The melting point of the first is lower: 152 to 164 °C for the first, 241 to 242 °C for the second.

First: O=S(=O)(NCc1ccccc1)c1ccc(N(OCC2CCCCC2)c2ncc3[nH]cnc3n2)cc1
Second: c1ccc(-c2nnc3c4ccccc4c(N4CCCC4)nn23)cc1
The melting point of the first is higher: 222 to 224 °C for the first, 208 °C for the second.

First: COc1cc2c3c(n(C)c(=O)c2cc1OC)-c1cc2c(cc1C3=CCCCCBr)OCO2
Second: Cc1ccc(C(=O)NCC(O)CO)cc1-n1c(C)cc(OCc2ccccc2CNC(=O)Nc2cc(C(C)(C)C)nn2-c2ccc(Cl)c(O)c2)c(Cl)c1=O (centres undefined)
The melting point of the first is higher: 196 to 197 °C for the first, 169 to 171 °C for the second.

First: CC(C)CN1N=C2C=NC(c3ccccc3)=CN2C1CC(=O)O (centres undefined)
Second: COC(=O)CCN=c1sc2ccccc2s1
The melting point of the first is higher: 160 °C for the first, 58 to 60 °C for the second.

Compound `O=C(O)c1cc2c(s1)CCC2=O` has a melting point of 195 to 196 °C.
